Measurements published in patent US20240390369A1, “METHODS FOR DETERMINING RESPONSIVENESS TO TYK2 INHIBITORS” (Bristol-Myers Squibb Company, priority 2021, published 2024).

Tested on: patients with psoriatic arthritis
Experiment: Phase 2 trial in psoriatic arthritis: PASI75 response at week 16
Format: in vivo, human
Settings: for Odds Ratio for PASI75 response / Odds Ratio (OR) for PASI75 response / Interaction Term for PASI75 response (ratio of odds ratios): week 16
Procedure: In a double-blind Phase 2 trial, 203 patients with psoriatic arthritis were randomized into three groups: deucravacitinib 6 mg once daily (N=70), deucravacitinib 12 mg once daily (N=67), or placebo (N=66). All subjects had active psoriatic arthritis according to the Classification Criteria for Psoriatic Arthritis (CASPAR); for active disease, these criteria required ≥3 tender joint count, ≥3 swollen joint count, and a C-reactive protein level above 3 mg/L. Other inclusion criteria included the following: presence of at least one plaque psoriasis lesion, and prior treatment failure with a non-biologic disease modifying anti-rheumatic drug, a non-steroidal anti-inflammatory drug, or a steroid. With respect to treatment history, approximately 70% of subjects had not received prior treatment with a biologic and were biologic naïve, while up to 30% of subjects had failed or had been intolerant to one TNF-inhibitor (TNF=Tumor necrosis factor, also known as TNFα). Randomization was stratified by prior TNF-inhibitor use (experienced/naïve) and body weight (<90 kg and ≥90 kg).
Clinical measures included the Psoriasis […] (PASI) score for skin psoriasis, American College of Rheumatology 20 (ACR20) response, Psoriatic Arthritis Disease Activity Score (PASDAS), Health Assessment Questionnaire-Disability Index (HAQ-DI), and Disease Activity Score 28 CRP (DAS28). To evaluate the predictive value of different protein measurements for the clinical response to deucravacitinib, baseline protein concentrations for responders and non-responders, as defined by ACR20 or PASI75 at week 16, were compared for each arm (placebo, 6 mg deucravacitinib once-daily, and 12 mg deucravacitinib once-daily).
In addition, a logistic regression model was fit, to determine whether baseline disease score (dichotomized by the median baseline score, into baseline score high and baseline score low groups) was associated with response status. The model generated an odds ratio for each dosed arm versus placebo, in baseline score high and baseline score low groups.
Boxplots for baseline protein level by response were generated with a horizontal line indicating the median protein level at baseline. For each treatment arm, a two-sample t-test was performed to test whether mean baseline serum protein level was different in responders versus non-responders. A Wilcoxon rank sum test (Mann-Whitney U test) was also performed to evaluate the difference in median serum protein level between responders and non-responders. Further, barplots of ACR20 and PASI75 response rate at week 16 for each treatment arm were generated for all subjects (protein level high and protein level low subjects, dichotomized according to median baseline level). Line plots of ACR20 and PASI75 response rate over time for each treatment arm were generated for protein level high and protein level low groups. Logistic regression models were also fit to evaluate associations between baseline protein levels and clinical outcome.
For certain analyses described herein, patients were dichotomized by median values (e.g., of the proteins listed above or other measures) into “high” and “low” groups, such that the high group had values above the median and the low group had values less than or equal to the median.
In addition, logistic regression models were fit for response measures ACR20 and PASI75, to generate the odds ratio of each of the deucravacitinib treatment arms versus placebo, in BD2-high and BD2-low groups. The following logistic regression models were used: • For ACR20 response status: ACR20 (Y/N)=treatment arm+BD2 group+treatment arm*BD2 group+TNF-inhibitor use+baseline weight (continuous). • For PASI75 response status: PASI75 (Y/N)=treatment arm+BD2 group+treatment arm*BD2 group+TNF-inhibitor use+baseline weight (continuous). […]

[2H]C([2H])([2H])NC(=O)c1nnc(NC(=O)C2CC2)cc1Nc1cccc(-c2ncn(C)n2)c1OC [deucravacitinib, 6-(cyclopropanecarboxamido)-4-((2-methoxy-3-(1-methyl-1H-1,2,4-triazol-3-yl)phenyl)amino)-N-(methyl-d3)pyridazine-3-carboxamide]
Odds Ratio, PASI75 response status (CRP-high-PASI-high, 12 mg QD vs placebo): 17.226 | Odds Ratio, PASI75 response status (CRP-high-PASI-low, 6 mg QD vs placebo): 0.710 | Odds Ratio, PASI75 response status (CRP-high-PASI-low, 12 mg QD vs placebo): 5.115 | Odds Ratio, PASI75 response status (CRP-high, 6 mg QD vs placebo, adjusted for baseline PASI score): 3.82 | Odds Ratio, PASI75 response status (CRP-high, 12 mg QD vs placebo, adjusted for baseline PASI score): 12.05 | Odds Ratio, PASI75 response status (CRP-low-PASI-high, 6 mg QD vs placebo): 2.470 | Odds Ratio, PASI75 response status (CRP-low-PASI-high, 12 mg QD vs placebo): 16.368 | Odds Ratio, PASI75 response status (CRP-low-PASI-low, 6 mg QD vs placebo): 1.866 | Odds Ratio, PASI75 response status (CRP-low-PASI-low, 12 mg QD vs placebo): 1.197 | Odds Ratio, PASI75 response status (CRP-low, 6 mg QD vs placebo, adjusted for baseline PASI score): 2.29 | Odds Ratio, PASI75 response status (CRP-low, 12 mg QD vs placebo, adjusted for baseline PASI score): 3.79 | Odds Ratio for PASI75 response (IL-17A high (baseline above median 0.575 ng/L), 6 mg QD vs placebo): 12.643 | Odds Ratio for PASI75 response (IL-17A high (baseline above median 0.575 ng/L), 12 mg QD vs placebo): 20.916 | PASI75 response rate at week 16 (IL-17A high group, 6 mg QD and 12 mg QD vs placebo (FIG. 21)): higher in both 6 mg QD and 12 mg QD treatment arms compared to placebo | Odds Ratio, PASI75 response status (IL-17A high-PASI high, 6 mg QD vs placebo): 12.355 | Odds Ratio, PASI75 response status (IL-17A high-PASI high, 12 mg QD vs placebo): 15.937 | Odds Ratio, PASI75 response status (IL-17A high-PASI low, 6 mg QD vs placebo): 13.247 | Odds Ratio, PASI75 response status (IL-17A high-PASI low, 12 mg QD vs placebo): 30.955 | Odds Ratio, PASI75 response status (IL-17A high, 6 mg QD vs placebo, adjusted for baseline PASI score): 13.452 | Odds Ratio, PASI75 response status (IL-17A high, 12 mg QD vs placebo, adjusted for baseline PASI score): 23.963 | Odds Ratio for PASI75 response (IL-17A high, treatment arms combined vs placebo): 15.763 | Odds Ratio, PASI75 response status (IL-17A low-PASI high, 6 mg QD vs placebo): 3.005 | Odds Ratio, PASI75 response status (IL-17A low-PASI high, 12 mg QD vs placebo): 20.919 | Odds Ratio, PASI75 response status (IL-17A low-PASI low, 6 mg QD vs placebo): 0.188 | Odds Ratio, PASI75 response status (IL-17A low-PASI low, 12 mg QD vs placebo): 0.415 | Odds Ratio, PASI75 response status (IL-17A low, 6 mg QD vs placebo, adjusted for baseline PASI score): 0.588 | Odds Ratio for PASI75 response (IL-17A low, 6 mg QD vs placebo): 0.553 | Odds Ratio, PASI75 response status (IL-17A low, 12 mg QD vs placebo, adjusted for baseline PASI score): 1.812 | Odds Ratio for PASI75 response (IL-17A low, 12 mg QD vs placebo): 1.730 | Odds Ratio for PASI75 response (IL-17A low, treatment arms combined vs placebo): 1.014 | PASI75 response rate at week 16 (IL-19-high group, 6 mg QD and 12 mg QD vs placebo arm (FIG. 14)): higher in both 6 mg QD and 12 mg QD treatment arms compared to the response rate in the placebo arm | Odds Ratio (OR) for PASI75 response (IL-19-low-PASI high, 6 mg QD vs placebo): 1.244 | Odds Ratio (OR) for PASI75 response (IL-19-low-PASI high, 12 mg QD vs placebo): 2.845 | Odds Ratio (OR) for PASI75 response (IL-19-low-PASI low, 6 mg QD vs placebo): 0.321 | Odds Ratio (OR) for PASI75 response (IL-19-low-PASI low, 12 mg QD vs placebo): 0.380 | Odds Ratio (OR) for PASI75 response (IL-19 low, 6 mg QD vs placebo): 0.443 | Odds Ratio (OR) for PASI75 response (IL-19 low, 12 mg QD vs placebo): 0.842 | Odds Ratio for PASI75 response (IL-19 low, treatment arms combined vs placebo): 6.284 | Interaction Term for PASI75 response (ratio of odds ratios) (adjusted for baseline PASI score, 6 mg QD vs placebo: BD2-high versus BD2-low): 13.742 | Interaction Term for PASI75 response (ratio of odds ratios) (adjusted for baseline PASI score, 12 mg QD vs placebo: BD2-high versus BD2-low): 19.455 | Odds Ratio for PASI75 response (adjusted for baseline PASI score, All patients, 6 mg QD vs placebo): 3.052 | Odds Ratio for PASI75 response (adjusted for baseline PASI score, All patients, 12 mg QD vs placebo): 6.494 | Odds Ratio for PASI75 response (adjusted for baseline PASI score, BD2-high, 6 mg QD vs placebo): 13.559 | Odds Ratio for PASI75 response (adjusted for baseline PASI score, BD2-high, 12 mg QD vs placebo): 34.074 | Odds Ratio for PASI75 response (adjusted for baseline PASI score, BD2-low, 6 mg QD vs placebo): 0.987 | Odds Ratio for PASI75 response (adjusted for baseline PASI score, BD2-low, 12 mg QD vs placebo): 1.751 | Odds Ratio (OR) for PASI75 response (adjusted for baseline PASI score, IL-19 low, 6 mg QD vs placebo): 0.476 | Odds Ratio (OR) for PASI75 response (adjusted for baseline PASI score, IL-19 low, 12 mg QD vs placebo): 0.896 | PASI75 response rate at week 16 (both CRP-high and CRP-low groups, 6 mg, 12 mg, placebo arms (FIG. 38)): the response rate was higher in the 6 mg deucravacitinib treatment arm than in the placebo arm, and the response rate was even higher in the 12 mg deucravacitinib treatment arm than in the 6 mg treatment arm | Interaction Term for PASI75 response (ratio of odds ratios) (treatment arms combined vs placebo: BD2 high versus BD2 low): 12.100 | Interaction Term: treatment arm*CRP group, PASI75 (treatment arms combined vs placebo: CRP high versus CRP low): 1.903 | Interaction Term for PASI75 response (ratio of odds ratios) (treatment arms combined vs placebo: IL-17A high versus IL-17A low): 15.541
